Tested on: L1210 leukemia cells
Experiment: Cytotoxicity assay on L1210 leukemia cells (Cell Counting Kit-8)
Conditions: positive control at 1.0 μM

COc1cc([C@@H]2c3cc4c(cc3[C@@H](O[C@@H]3O[C@@H]5CO[C@@H](C)O[C@H]5[C@H](O)[C@H]3O)[C@H]3COC(=O)[C@H]23)OCO4)cc(OC)c1O [etoposide, Etoposide]
inhibition of L1210 leukemia cell growth: 90.5%

From patent US20110136745A1, “METHOD OF SELECTING SOYBEANS WITH ENHANCED BIOACTIVITY AND COMPOSITIONS FOR REDUCING CANCER CELL VIABILITY” (Monsanto Technology LLC., priority 2008, published 2011)
